In US20240366612A1, “COMPOUNDS AND METHODS FOR MODULATING NUCLEIC ACID SPLICING” (REMIX THERAPEUTICS INC., priority 2021, published 2024):

What was measured:
HTT mRNA = test: Splicing RT-qPCR assay, HTT canonical (CJ) and alternative (AJ) junction mRNA; format: cell-based; settings: Homo sapiens, A673 or K562 cells, 24 hours treatment; for IC50: decrease in CJ mRNA; for AC50: increase in AJ mRNA
In short: (§1)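 Compound-treated A673 or K562 cells (11-point 3-fold dilution, top dose 10 uM final, DMSO ≤0.25%) were incubated for 24 h at 37° C. Lysates underwent one-step RT-qPCR for canonical and alternative-exon junction isoforms. Normalization used PPIA for A673 and GAPDH or GUSB for K562.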

MYB mRNA = test: Splicing RT-qPCR assay, MYB canonical (CJ) and alternative (AJ) junction mRNA; format: cell-based; settings: Homo sapiens, A673 or K562 cells, 24 hours treatment; for IC50: decrease in CJ mRNA; for AC50: increase in AJ mRNA
In short: as §1

HTT CJ mRNA = test: Gene panel canonical junction qPCR assay, HTT; format: cell-based; settings: Homo sapiens, larger gene panel, read-out: HTT IC50 (decrease in CJ mRNA levels)
In short: (§2)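 A673 or K562 cells treated 24 h with 11-point 3-fold dilutions (top 10 µM, ≤0.25% DMSO) at 37 °C. Canonical exon-junction mRNA measured by probe-based RT-qPCR, normalized to GAPDH, GUSB or PPIA and DMSO (2^−ΔΔCt), converted to percent response over a fixed ΔCt window; IC50 from 4-parameter fit.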

MYB CJ mRNA = test: Gene panel canonical junction qPCR assay, MYB; format: cell-based; settings: Homo sapiens, larger gene panel, read-out: MYB IC50 (decrease in CJ mRNA levels)
In short: as §2

SMN2 CJ mRNA = test: Gene panel canonical junction qPCR assay, SMN2; format: cell-based; settings: Homo sapiens, larger gene panel, read-out: SMN2 IC50 (decrease in CJ mRNA levels)
In short: as §2

[1] = Cell Titer Glo 2.0 cell viability assay; settings: human, K562 cells

SMILES | IC50 (HTT mRNA) | IC50 (MYB mRNA) | IC50 (HTT CJ mRNA) | IC50 (MYB CJ mRNA) | IC50 (SMN2 CJ mRNA) | AC50 (HTT mRNA) | AC50 (MYB mRNA) | GI50 at 72 h [1]
Cc1cn2cc(-c3cn4c(=O)cc(N5CCNC6(CC6)C5)nc4s3)cc(F)c2n1 [Compound 208, 2-(8-fluoro-2-methylimidazo[1,2-a]pyridin-6-yl)-7-(4,7-diazaspiro[2.5]octan-7-yl)-5H-thiazolo[3,2-a]pyrimidin-5-one] | 1000 to 10000 nM | 1000 to 10000 nM | 1000 to 10000 nM | 1000 to 10000 nM | 1000 to 10000 nM | 1000 to 10000 nM | 1000 to 10000 nM | 1000 to 10000 nM
Cc1nc(-c2nc3ncn(C4CCNCC4)c(=O)c3s2)cc2cn(C)nc12 [Compound 251, 2-(2,7-dimethyl-2H-pyrazolo[3,4-c]pyridin-5-yl)-6-(piperidin-4-yl)thiazolo[4,5-d]pyrimidin-7(6H)-one] | 1000 to 10000 nM | 1000 to 10000 nM | 1000 to 10000 nM | 1000 to 10000 nM | 100 to 1000 nM | 1000 to 10000 nM | > 10000 nM | 1000 to 10000 nM
COc1cc(-c2cc3ncn(C4CCNCC4)c(=O)c3s2)cnn1 [Compound 260] | 1000 to 10000 nM | 1000 to 10000 nM | 1000 to 10000 nM | 1000 to 10000 nM | 1000 to 10000 nM | 1000 to 10000 nM | 1000 to 10000 nM | 1000 to 10000 nM
Cc1cn2nc(-c3cc4ccn(C5CCN(C)CC5)c(=O)c4s3)cc(C)c2n1 [Compound 809] | 1000 to 10000 nM | 1000 to 10000 nM | 1000 to 10000 nM | 1000 to 10000 nM | 100 to 1000 nM | 1000 to 10000 nM | 1000 to 10000 nM | 1000 to 10000 nM
Cc1cn2cc(-c3nc4sc(C5CCNCC5)cc4c(=O)[nH]3)cc(F)c2n1 [Compound 250, 2-(8-fluoro-2-methylimidazo[1,2-a]pyridin-6-yl)-6-(piperidin-4-yl)thieno[2,3-d]pyrimidin-4(3H)-one] | 100 to 1000 nM | 100 to 1000 nM | 100 to 1000 nM | 100 to 1000 nM | 100 to 1000 nM | 100 to 1000 nM | 100 to 1000 nM | 100 to 1000 nM
Cc1cn2cc(-c3cc4ncn(C5CCNCC5)c(=O)c4s3)cc(C)c2n1 [Compound 261] | 100 to 1000 nM | 100 to 1000 nM | 100 to 1000 nM | 100 to 1000 nM | < 100 nM | 1000 to 10000 nM | 100 to 1000 nM | 1000 to 10000 nM
Cc1cn2cc(-c3nc4cnn(C5CCNCC5)c(=O)c4s3)nc(C)c2n1 [Compound 812, 2-(2,8-dimethylimidazo[1,2-a]pyrazin-6-yl)-6-(piperidin-4-yl)thiazolo[4,5-d]pyridazin-7(6H)-one] | > 10000 nM | > 10000 nM | > 10000 nM | > 10000 nM | > 10000 nM | > 10000 nM | > 10000 nM | 100 to 1000 nM
Cc1cn2cc(-c3cc4ccn(C5CCNCC5)c(=O)c4s3)cc(F)c2n1 [Compound 804, 2-(8-fluoro-2-methylimidazo[1,2-a]pyridin-6-yl)-6-(piperidin-4-yl)thieno[2,3-c]pyridin-7(6H)-one] | 100 to 1000 nM | 100 to 1000 nM | 100 to 1000 nM | 100 to 1000 nM | 100 to 1000 nM | 100 to 1000 nM | 100 to 1000 nM | 100 to 1000 nM
Cc1cc(-c2cc(=O)n3nc(N4CCN(C)CC4)sc3n2)cc2cn(C)nc12 [Compound 157, 7-(2,7-dimethyl-2H-indazol-5-yl)-2-(4-methylpiperazin-1-yl)-5H-[1,3,4]thiadiazolo[3,2-a]pyrimidin-5-one] | > 10000 nM | > 10000 nM | > 10000 nM | > 10000 nM | > 10000 nM | > 10000 nM | > 10000 nM | > 10000 nM
Cc1cn2cc(-c3nc4sc(C5CCN(C)CC5)cc4c(=O)[nH]3)cc(F)c2n1 [Compound 256, 2-(8-fluoro-2-methylimidazo[1,2-a]pyridin-6-yl)-6-(1-methylpiperidin-4-yl)thieno[2,3-d]pyrimidin-4(3H)-one] | > 10000 nM | > 10000 nM | > 10000 nM | > 10000 nM | 1000 to 10000 nM | > 10000 nM | > 10000 nM | > 10000 nM
Cn1cc2cc(-n3cnc4nc(N5CCNCC5)sc4c3=O)ccc2n1 [Compound 225, 6-(2-methyl-2H-indazol-5-yl)-2-(piperazin-1-yl)thiazolo[4,5-d]pyrimidin-7(6H)-one] | > 10000 nM | > 10000 nM | > 10000 nM | > 10000 nM | > 10000 nM | > 10000 nM | > 10000 nM | > 10000 nM
Cc1cn2nc(-c3cc4ncn(C5CCNCC5)c(=O)c4s3)cc(C)c2n1 [Compound 238, 6-(2,8-dimethylimidazo[1,2-b]pyridazin-6-yl)-3-(piperidin-4-yl)thieno[3,2-d]pyrimidin-4(3H)-one] | 100 to 1000 nM | 100 to 1000 nM | 100 to 1000 nM | 100 to 1000 nM | < 100 nM | 100 to 1000 nM | 100 to 1000 nM | 1000 to 10000 nM
Cc1cn2cc(-c3cc4ncn(C5CCNCC5)c(=O)c4s3)ncc2n1 [Compound 264] | 1000 to 10000 nM | 1000 to 10000 nM | 1000 to 10000 nM | 1000 to 10000 nM | 100 to 1000 nM | 1000 to 10000 nM | 1000 to 10000 nM | 1000 to 10000 nM
Cc1cn2cc(-c3cc(=O)n4cc(N5CCNC6(CC6)C5)sc4n3)cc(F)c2n1 [Compound 207, 7-(8-fluoro-2-methylimidazo[1,2-a]pyridin-6-yl)-2-(4,7-diazaspiro[2.5]octan-7-yl)-5H-thiazolo[3,2-a]pyrimidin-5-one] | > 10000 nM | 1000 to 10000 nM | > 10000 nM | 1000 to 10000 nM | 100 to 1000 nM | > 10000 nM | > 10000 nM | > 10000 nM

Second part, led by results:

IC50 (HTT mRNA) | IC50 (MYB mRNA) | IC50 (HTT CJ mRNA) | IC50 (MYB CJ mRNA) | IC50 (SMN2 CJ mRNA) | SMILES | AC50 (HTT mRNA) | AC50 (MYB mRNA) | GI50 at 72 h [1]
< 100 nM | 100 to 1000 nM | < 100 nM | 100 to 1000 nM | < 100 nM | Cc1cn2cc(-c3cc4ncn(C5CCNCC5)c(=O)c4s3)cc(F)c2n1 [Compound 235, 6-(8-fluoro-2-methylimidazo[1,2-a]pyridin-6-yl)-3-(piperidin-4-yl)thieno[3,2-d]pyrimidin-4(3H)-one] | < 100 nM | 100 to 1000 nM | 100 to 1000 nM
100 to 1000 nM | 100 to 1000 nM | 100 to 1000 nM | 100 to 1000 nM | 1000 to 10000 nM | Cc1cn2nc(-c3nc4ncn(C5CCNCC5)c(=O)c4s3)cc(C)c2n1 [Compound 231, 2-(2,8-dimethylimidazo[1,2-b]pyridazin-6-yl)-6-(piperidin-4-yl)thiazolo[4,5-d]pyrimidin-7(6H)-one] | 100 to 1000 nM | 100 to 1000 nM | 1000 to 10000 nM
1000 to 10000 nM | 1000 to 10000 nM | 1000 to 10000 nM | 1000 to 10000 nM | 1000 to 10000 nM | Cc1cn2cc(-c3cc(=O)n4nc(N5CCN(C)CC5)sc4n3)cc(F)c2n1 [Compound 159, 7-(8-fluoro-2-methylimidazo[1,2-a]pyridin-6-yl)-2-(4-methylpiperazin-1-yl)-5H-[1,3,4]thiadiazolo[3,2-a]pyrimidin-5-one] | 1000 to 10000 nM | 1000 to 10000 nM | 1000 to 10000 nM
> 10000 nM | > 10000 nM | > 10000 nM | > 10000 nM | > 10000 nM | Cc1cn2cc(-n3ccc4cc(C5CCNCC5)sc4c3=O)cc(F)c2n1 [Compound 801, 6-[8-fluoro-2-methylimidazo[1,2-a]pyridin-6-yl]-2-(piperidin-4-yl)thieno[2,3-c]pyridin-7-one] | > 10000 nM | > 10000 nM | > 10000 nM
1000 to 10000 nM | 1000 to 10000 nM | 1000 to 10000 nM | 1000 to 10000 nM | 100 to 1000 nM | Cc1cn2nc(-c3cc(=O)n4cc(N5CCNC6(CC6)C5)sc4n3)cc(C)c2n1 [Compound 211, 7-(2,8-dimethylimidazo[1,2-b]pyridazin-6-yl)-2-(4,7-diazaspiro[2.5]octan-7-yl)-5H-thiazolo[3,2-a]pyrimidin-5-one] | 1000 to 10000 nM | 100 to 1000 nM | 1000 to 10000 nM
100 to 1000 nM | 100 to 1000 nM | 100 to 1000 nM | 100 to 1000 nM | < 100 nM | Cc1cn2cc(-c3cc4ncn(N5CCNCC5)c(=O)c4s3)cc(F)c2n1 [Compound 269, 6-{8-fluoro-2-methylimidazo[1,2-a]pyridin-6-yl}-3-(piperazin-1-yl)thieno[3,2-d]pyrimidin-4-one] | 100 to 1000 nM | 100 to 1000 nM | 100 to 1000 nM
> 10000 nM | > 10000 nM | > 10000 nM | > 10000 nM | 1000 to 10000 nM | Cc1cn2cc(-c3cn4c(=O)cc(N5CCNCC5)nc4s3)cc(F)c2n1 [Compound 213, 2-(8-fluoro-2-methylimidazo[1,2-a]pyridin-6-yl)-7-(piperazin-1-yl)-5H-thiazolo[3,2-a]pyrimidin-5-one] | > 10000 nM | > 10000 nM | > 10000 nM
